The values below come from US10434143B2, “Method of treating anemia caused by ribavirin treatment of hepatitis C using erythropoietin alpha” (priority 2001, dated 2019).

The test system of series [1] is hepatitis C virus. As to the kind of experiment: Study of interferon alone and interferon plus ribavirin for hepatitis C in HIV-infected patients. It counts as in vivo, human. The settings on record: interferon alone group, 3 months, 10 patients. As for the experimental part:
A study of interferon alone and interferon plus ribavirin for hepatitis C in HIV-infected patients was performed. Ten patients received interferon alone and 11 received the combination treatment of interferon alpha and ribavirin. Median liver biopsy fibrosis score for both groups was 2.1. In the interferon alone group, at 3 months, there was no change in HCV RNA, CD4 dropped from a median of 190 to 186 cells/ml and HIV RNA dropped from a median of 1500 copies per ml to less than 400. At the same time point, 3 months, in the combination group, the HCV RNA dropped from 3.2 million to less than about 600 copies/ml. […] The main adverse event was anemia which occurred in 5/21(23.8%). This was treated with erythropoietin 40,000 units weekly when the hemoglobin declined to 10 g/dl. […] This was the first report of this treatment in patients with HIV infection as well as hepatitis C.

The format of series [2] is in vivo, human. On the procedure: In an open-label, prospective pilot study, 56 subjects with chronic HCV infection were treated with both RBV and IFN-α. Eighteen subjects with anemia (hemoglobin 10 g/dl or […]) and reduced exercise tolerance following IFN-α/RBV initiation were treated with Epoetin alpha (up to 40,000 units per week subcutaneously). […] At the time of epoetin alpha initiation, the mean hemoglobin level declined 25.4% (to 10.6 g/dL) in the group receiving this treatment. […] Two thirds of subjects receiving epoetin alpha reported improved symptoms. […] Fifty-six chronically HCV-infected (≥90 days) subjects who were treated with IFN-α (3 million units TIW) and RBV (1000 mg/d for subjects <75 kg or 1200 mg/d for subjects ≥75 kg) were entered into an open-label, pilot, prospective study at several centers. […] RBV doses were adjusted by treating physicians as clinically indicated throughout the study. Following INF-α/RBV initiation, subjects with new-onset anemia (hemoglobin ≤10 g/dL or ≥2 g/dL decrease in hemoglobin) or a decrease in hemoglobin accompanied by decreased exercise tolerance (providers' impressions) received epoetin alpha (up to 40,000 units per week, subcutaneously). […] After initiation of epoetin alpha therapy, subjects were evaluated at a 2-week interval for 8 weeks and every 4 weeks thereafter for a maximum of 40 weeks. At each visit, laboratory safety parameters were obtained and, for most subjects, health-care providers recorded whether improvement had occurred in symptoms that typically occur as a side-effect of anemia or after therapy with IFN-α/RBV (e.g., flu-like symptoms, fatigue, dyspnea). […] In addition, clinical benefit of epoetin alpha therapy was evaluated by comparing the percent decline in hemoglobin levels from baseline to initiation of epoetin alpha with the percent recovery in these levels by the last visit. Fisher's exact test or the t-test was used to evaluate the significance of differences between groups with respect to demographic characteristics.

A short description of series [3]: Erythropoietin 40,000 units weekly for ribavirin-induced anemia. It counts as in vivo, human. On the procedure:
A study of interferon alone and interferon plus ribavirin for hepatitis C in HIV-infected patients was performed. Ten patients received interferon alone and 11 received the combination treatment of interferon alpha and ribavirin. Median liver biopsy fibrosis score for both groups was 2.1. In the interferon alone group, at 3 months, there was no change in HCV RNA, CD4 dropped from a median of 190 to 186 cells/ml and HIV RNA dropped from a median of 1500 copies per ml to less than 400. At the same time point, 3 months, in the combination group, the HCV RNA dropped from 3.2 million to less than about 600 copies/ml. […] This was treated with erythropoietin 40,000 units weekly when the hemoglobin declined to 10 g/dl. […] This was the first report of this treatment in patients with HIV infection as well as hepatitis C. […] This was done in both HIV seronegative individuals and HIV seropositive individuals.

The format of series [4] is in vivo, human. As for the experimental part:
Once-weekly recombinant human erythropoietin (epoetin alpha) facilitates optimal ribavirin (RBV) dosing in Hepatitis C virus (HCV)-infected patients receiving Interferon-α-2b (IFN)/RBV combination therapy. RBV dose reduction or discontinuation has been the standard approach to treating hemoglobin (Hb) decreases resulting from IFN/RBV therapy in HCV-infected patients. […] An open-label, randomized, multicenter study was conducted to assess the efficacy and tolerability of once-weekly (QW) epoetin alpha therapy for hemoglobin decreases associated with IFN/RBV therapy and to evaluate the impact of epoetin alpha therapy on RBV dosing. HCV-infected patients who developed hemoglobin levels ≤12 g/dL during the first 24 weeks of combination IFN/RBV therapy (n=60) were randomly assigned to treatment with epoetin alpha (40000 units) subcutaneously once weekly for up to 36 weeks or standard of care (SOC). The primary and secondary efficacy end points were changes from baseline (at Week 16) in hemoglobin level and RBV dose, respectively.
The source holds these as a separate data set.

The test system of series [5] is hepatitis C virus. Conditions: with interferon, licensing trials, cited from earlier work.

Where “and” joins values, the source holds several entries; their conditions need not be identical. Identical values can stand only once.

IFN-α: the “change in HCV RNA” value in the series on hepatitis C virus [1] was “no change”.
For “epoetin alpha: recombinant human erythropoietin (r-HuEPO, Epoetin alpha)”, the “mean hemoglobin level at the last study visit” value in series [2] (epoetin alpha up to 40,000 units per week s.c., N=18, mean follow-up 25.3 weeks) was 12.7 g/dL and 12.7 ± 1.7 g/dL. In series [2] (human, in vivo), the “Dyspnea (%)” value is reported as 80.0%; the “Dyspnea, median duration (wks)” value was 6.6 wks; the “Fatigue (%)” value was 73.3%; the “Fatigue, median duration (wks)” value stood at 8.2 wks. Moreover, in series [2] (human, in vivo), the Flu-like symptoms is on record as 46.7 and the “Flu-like symptoms, median duration (wks)” value is reported as 2.7 wks. The “recovery in mean hemoglobin level after initiation of epoetin alpha” value in series [2] (percent recovery by the last visit) is 65.5% and 65.5±56.3%. In addition, in series [3] (begun when hemoglobin declined to 10 g/dl, after a median of 4 weeks, HCV/HIV patients), the “hemoglobin after erythropoietin treatment” value amounted to 12.7 g/dL. In addition, the quality of life result in series [3] (hemoglobin 11 gr/dl or less, HIV seronegative and seropositive) is recorded as “substantial increase in their quality of life”. Moreover, in series [4] (P<0.05 vs SOC), the “mean hemoglobin level at last available assessment” value was 13.8 g/dL. Besides, the “mean change in RBV dose at last available assessment” value in series [4] (baseline 998 mg/day, P<0.05 vs SOC) was -25 mg/day. In addition, the “mean change from baseline hemoglobin level at last available assessment” value in series [4] (epoetin alpha 40000 units s.c. once weekly, baseline 11.0 g/dL, P<0.05 vs SOC) is “+2.7 g/dL”. Also, the tolerability entry in series [4] (human, in vivo) was “well tolerated”. Further, in series [4] (last available assessment, P<0.01 vs SOC), the “patients treated with RBV doses greater than 10.6 mg/kg per day” value is reported as 77%.
Regarding `NC(=O)c1ncn([C@@H]2O[C@H](CO)[C@@H](O)[C@H]2O)n1` [ribavirin], the “sustained virologic response rate” value in the series on hepatitis C virus [5] (at least 10.6 mg/kg ribavirin) is on record as “over 40%”. Also, in the series with hepatitis C virus [5] (less than 10.6 mg/kg ribavirin), the “SVR (response) rate” value is 28%.
